From BindingDB's records for PubMed 36327695 (n/a, 2022)

Columns and labels:
Maltase-glucoamylase [1] = target: T1, Maltase-glucoamylase (Homo sapiens, UniProt O43451); test: Inhibition of alpha-glucosidase (unknown origin) using pNPG as substrate preincubated with enzyme for 15 mins followed by substrate addition and measured after 10 mins by microplate reader analysis
Maltase-glucoamylase [2] = target: T1, Maltase-glucoamylase; test: Non-competitive inhibition of alpha-glucosidase (unknown origin) using pNPG as substrate preincubated with enzyme for 15 mins followed by substrate addition and measured for 15 mins by Dixon plot analysis

T1 sequence (O43451 whole entry): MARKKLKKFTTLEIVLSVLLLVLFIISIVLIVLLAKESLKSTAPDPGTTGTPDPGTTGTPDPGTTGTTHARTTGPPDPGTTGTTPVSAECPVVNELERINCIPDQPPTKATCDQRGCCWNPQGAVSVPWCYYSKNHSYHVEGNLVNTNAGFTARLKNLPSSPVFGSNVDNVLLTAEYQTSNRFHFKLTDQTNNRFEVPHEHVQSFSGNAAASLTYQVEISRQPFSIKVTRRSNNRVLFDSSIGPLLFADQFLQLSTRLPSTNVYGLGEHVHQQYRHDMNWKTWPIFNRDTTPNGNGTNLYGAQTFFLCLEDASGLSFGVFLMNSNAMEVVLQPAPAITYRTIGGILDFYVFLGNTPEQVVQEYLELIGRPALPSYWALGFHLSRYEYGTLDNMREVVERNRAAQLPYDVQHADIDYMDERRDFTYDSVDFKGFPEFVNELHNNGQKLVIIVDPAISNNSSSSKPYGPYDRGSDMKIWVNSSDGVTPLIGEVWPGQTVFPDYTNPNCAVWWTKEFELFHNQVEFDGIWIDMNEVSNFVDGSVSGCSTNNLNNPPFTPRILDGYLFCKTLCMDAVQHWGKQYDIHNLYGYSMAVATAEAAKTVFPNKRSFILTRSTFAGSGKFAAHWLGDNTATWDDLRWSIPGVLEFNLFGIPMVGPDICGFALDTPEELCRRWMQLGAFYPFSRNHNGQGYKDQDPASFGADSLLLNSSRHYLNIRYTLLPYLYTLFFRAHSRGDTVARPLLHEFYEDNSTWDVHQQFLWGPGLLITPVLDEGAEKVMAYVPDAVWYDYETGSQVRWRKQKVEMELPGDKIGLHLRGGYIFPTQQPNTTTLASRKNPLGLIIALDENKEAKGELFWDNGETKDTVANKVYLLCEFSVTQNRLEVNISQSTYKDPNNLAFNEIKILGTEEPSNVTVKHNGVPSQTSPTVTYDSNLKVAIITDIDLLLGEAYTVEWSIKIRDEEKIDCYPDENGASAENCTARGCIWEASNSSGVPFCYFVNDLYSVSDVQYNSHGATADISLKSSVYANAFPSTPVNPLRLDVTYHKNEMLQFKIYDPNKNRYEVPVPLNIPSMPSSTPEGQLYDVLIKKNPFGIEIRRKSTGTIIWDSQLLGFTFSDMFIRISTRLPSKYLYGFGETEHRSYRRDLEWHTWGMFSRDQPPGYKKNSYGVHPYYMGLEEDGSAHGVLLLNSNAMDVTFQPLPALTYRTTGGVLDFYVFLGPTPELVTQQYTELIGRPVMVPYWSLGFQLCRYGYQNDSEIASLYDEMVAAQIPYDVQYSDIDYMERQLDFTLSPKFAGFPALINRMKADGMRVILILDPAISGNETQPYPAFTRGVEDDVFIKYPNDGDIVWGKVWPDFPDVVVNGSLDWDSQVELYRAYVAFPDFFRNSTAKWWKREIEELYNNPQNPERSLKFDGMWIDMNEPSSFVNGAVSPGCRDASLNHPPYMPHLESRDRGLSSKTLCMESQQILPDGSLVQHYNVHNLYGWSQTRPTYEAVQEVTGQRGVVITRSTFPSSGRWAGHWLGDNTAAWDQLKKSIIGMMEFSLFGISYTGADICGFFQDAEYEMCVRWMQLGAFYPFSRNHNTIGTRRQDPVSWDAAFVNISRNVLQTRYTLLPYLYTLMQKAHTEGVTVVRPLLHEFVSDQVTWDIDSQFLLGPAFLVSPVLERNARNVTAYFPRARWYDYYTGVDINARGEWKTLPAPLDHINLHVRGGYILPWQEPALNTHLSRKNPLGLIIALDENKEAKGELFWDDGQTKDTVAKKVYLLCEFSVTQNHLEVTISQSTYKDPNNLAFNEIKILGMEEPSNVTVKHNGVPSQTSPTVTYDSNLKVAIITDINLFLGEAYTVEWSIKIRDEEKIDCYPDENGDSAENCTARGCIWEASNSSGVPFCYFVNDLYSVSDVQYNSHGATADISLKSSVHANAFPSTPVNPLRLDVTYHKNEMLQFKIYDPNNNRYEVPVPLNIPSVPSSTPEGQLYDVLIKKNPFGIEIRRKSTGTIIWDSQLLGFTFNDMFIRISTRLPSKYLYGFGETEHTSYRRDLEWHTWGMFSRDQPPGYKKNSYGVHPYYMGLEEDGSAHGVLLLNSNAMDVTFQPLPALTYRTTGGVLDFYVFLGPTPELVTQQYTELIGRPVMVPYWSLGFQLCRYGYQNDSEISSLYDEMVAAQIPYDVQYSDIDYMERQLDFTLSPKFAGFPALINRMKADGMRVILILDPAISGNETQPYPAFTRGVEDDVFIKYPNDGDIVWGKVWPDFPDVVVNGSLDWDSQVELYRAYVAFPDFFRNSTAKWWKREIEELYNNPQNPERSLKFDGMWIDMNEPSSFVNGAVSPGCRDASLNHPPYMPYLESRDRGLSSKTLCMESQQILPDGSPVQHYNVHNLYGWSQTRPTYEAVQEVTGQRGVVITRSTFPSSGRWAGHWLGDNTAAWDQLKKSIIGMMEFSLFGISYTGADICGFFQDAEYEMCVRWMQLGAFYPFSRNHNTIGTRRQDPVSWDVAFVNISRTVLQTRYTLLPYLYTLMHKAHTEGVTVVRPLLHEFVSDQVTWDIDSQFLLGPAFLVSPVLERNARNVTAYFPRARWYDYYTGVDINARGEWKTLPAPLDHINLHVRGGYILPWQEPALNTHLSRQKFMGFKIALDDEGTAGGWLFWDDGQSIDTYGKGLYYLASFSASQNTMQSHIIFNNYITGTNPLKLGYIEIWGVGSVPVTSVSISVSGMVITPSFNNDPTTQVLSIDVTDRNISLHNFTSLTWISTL

| IC50 (Maltase-glucoamylase [1]) [µM] | Ki (Maltase-glucoamylase [2]) [µM] | SMILES |
| --- | --- | --- |
| 30.4 |  | C=CCc1cc(-c2ccc(O)c(CC=C)c2)c(O)c(C(c2ccc(OC)cc2)N2CCCCC2)c1 (configuration not stated) |
| 18.6 |  | C=CCc1cc(-c2cc(CC=C)c(O)c(C(c3ccc(Cl)cc3)N3CCOCC3)c2)c(O)c(C(c2ccc(Cl)cc2)N2CCOCC2)c1 (configuration not stated) |
| 14.9 | 1.7 | C=CCc1cc(-c2ccc(O)c(CC=C)c2)c(O)c(C(c2cc(Cl)cc(Cl)c2)N2CCC(C)CC2)c1 (configuration not stated) |
| 13.8 | 3.27 | C=CCc1cc(-c2ccc(O)c(CC=C)c2)c(O)c(C(c2cc(Cl)cc(Cl)c2)N2CCOCC2)c1 (configuration not stated) |
| 23.5 |  | C=CCc1cc(-c2ccc(O)c(CC=C)c2)c(O)c(C(c2cc(Cl)cc(Cl)c2)N2CCCCC2)c1 (configuration not stated) |
